System: rat small-intestinal brush border membrane vesicles
Assay: Inhibitory effect on 33PO4 uptake into rat small-intestinal brush border membrane vesicles (rapid filtration method)
Type: biochemical
Conditions: 33PO4 uptake into rat small-intestinal BBMVs; test compound 1 µM; reacted for 60 seconds
In short: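 Uptake of ^33PO4 was measured by rapid filtration and liquid scintillation counting of filter-retained vesicles, after quenching with ice-cold 110 mM NaCl/1 mM KH2PO4/10 mM HEPES pH 7.5. Vesicles were brush border membranes from the upper small intestine of female Wistar rats aged 4–5 weeks.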

SMILES | Rate of uptake inhibition (%) (1 µM)
CN1N(Cc2ccc(OCCN3CCOCC3(C)C)c(F)c2F)C(=O)C(C(=O)Nc2ccc(C(F)(F)F)cc2-c2cc(C(F)(F)F)ncn2)=C(O)C12CCC2 [Example 341] | 64
CN1N(Cc2ccc(OCCN3CCOC(C)(C)C3)c(F)c2F)C(=O)C(C(=O)Nc2ccc(C(F)(F)F)cc2-c2cc(C(F)(F)F)ncn2)=C(O)C12CCC2 [Example 342] | 43
C[C@H]1COC[C@H](C)N1CCOc1ccc(CN2C(=O)C(C(=O)Nc3ccc(C(F)(F)F)cc3-c3cc(C(F)(F)F)ncn3)=C(O)C3(CCC3)N2C)c(F)c1F [Example 343] | 68
C[C@@H]1COC[C@H](C)N1CCOc1ccc(CN2C(=O)C(C(=O)Nc3ccc(C(F)(F)F)cc3-c3cc(C(F)(F)F)ncn3)=C(O)C3(CCC3)N2C)c(F)c1F [Example 344] | 58
COC(=O)CN(C)CCOc1ccc(CN2C(=O)C(C(=O)Nc3ccc(C(F)(F)F)cc3-c3cc(C(F)(F)F)ncn3)=C(O)C3(CCC3)N2C)c(F)c1F [Example 346] | 42
CN(CCO)CCOc1ccc(CN2C(=O)C(C(=O)Nc3ccc(C(F)(F)F)cc3-c3cc(C(F)(F)F)ncn3)=C(O)C3(CCC3)N2C)c(F)c1F [Example 347] | 28
COCCN(CCOC)CCOc1ccc(CN2C(=O)C(C(=O)Nc3ccc(C(F)(F)F)cc3-c3cc(C(F)(F)F)ncn3)=C(O)C3(CCC3)N2C)c(F)c1F [Example 348] | 31
COCC(C)(C)N(C)CCOc1ccc(CN2C(=O)C(C(=O)Nc3ccc(C(F)(F)F)cc3-c3cc(C(F)(F)F)ncn3)=C(O)C3(CCC3)N2C)c(F)c1F [Example 349] | 55
COC(C)(C)CN(C)CCOc1ccc(CN2C(=O)C(C(=O)Nc3ccc(C(F)(F)F)cc3-c3cc(C(F)(F)F)ncn3)=C(O)C3(CCC3)N2C)c(F)c1F [Example 350] | 45
CN1N(Cc2ccc(OCCN(CCO)CCO)c(F)c2F)C(=O)C(C(=O)Nc2ccc(C(F)(F)F)cc2-c2cc(C(F)(F)F)ncn2)=C(O)C12CCC2 [Example 351] | 22
CN1N(Cc2ccc(OCCn3cncn3)c(F)c2F)C(=O)C(C(=O)Nc2ccc(C(F)(F)F)cc2-c2cc(C(F)(F)F)ncn2)=C(O)C12CCC2 [Example 352] | 27
CC(=O)NCCN(C)CCOc1ccc(CN2C(=O)C(C(=O)Nc3ccc(C(F)(F)F)cc3-c3cc(C(F)(F)F)ncn3)=C(O)C3(CCC3)N2C)c(F)c1F [Example 353] | 26
CC(=O)N(C)CCN(C)CCOc1ccc(CN2C(=O)C(C(=O)Nc3ccc(C(F)(F)F)cc3-c3cc(C(F)(F)F)ncn3)=C(O)C3(CCC3)N2C)c(F)c1F [Example 354] | 31
COC(=O)[C@@H]1CCCN1CCOc1ccc(CN2C(=O)C(C(=O)Nc3ccc(C(F)(F)F)cc3-c3cc(C(F)(F)F)ncn3)=C(O)C3(CCC3)N2C)c(F)c1F [Example 355] | 36
COC1(C)CN(CCOc2ccc(CN3C(=O)C(C(=O)Nc4ccc(C(F)(F)F)cc4-c4cc(C(F)(F)F)ncn4)=C(O)C4(CCC4)N3C)c(F)c2F)C1 [Example 356] | 58
CSC1CN(CCOc2ccc(CN3C(=O)C(C(=O)Nc4ccc(C(F)(F)F)cc4-c4cc(C(F)(F)F)ncn4)=C(O)C4(CCC4)N3C)c(F)c2F)C1 [Example 357] | 45
CN1N(Cc2ccc(OCCN3CCC(N4CCOCC4)CC3)c(F)c2F)C(=O)C(C(=O)Nc2ccc(C(F)(F)F)cc2-c2cc(C(F)(F)F)ncn2)=C(O)C12CCC2 [Example 358] | 34

SMILES | Rate of uptake inhibition (%) (1 µM)
CN1CCN(CCOc2ccc(CN3C(=O)C(C(=O)Nc4ccc(C(F)(F)F)cc4-c4cc(C(F)(F)F)ncn4)=C(O)C4(CCC4)N3C)c(F)c2F)CC1=O [Example 359] | 37
CN1N(Cc2ccc(OCCN3CCN(CCO)CC3)c(F)c2F)C(=O)C(C(=O)Nc2ccc(C(F)(F)F)cc2-c2cc(C(F)(F)F)ncn2)=C(O)C12CCC2 [Example 360] | 21
CN1N(Cc2ccc(OCCN3CCN(CCOCCO)CC3)c(F)c2F)C(=O)C(C(=O)Nc2ccc(C(F)(F)F)cc2-c2cc(C(F)(F)F)ncn2)=C(O)C12CCC2 [Example 361] | 20
CN1N(Cc2ccc(OCCN3CCN(CCCO)CC3)c(F)c2F)C(=O)C(C(=O)Nc2ccc(C(F)(F)F)cc2-c2cc(C(F)(F)F)ncn2)=C(O)C12CCC2 [Example 362] | 17
CN1N(Cc2ccc(OCCN3CCN(S(C)(=O)=O)CC3)c(F)c2F)C(=O)C(C(=O)Nc2ccc(C(F)(F)F)cc2-c2cc(C(F)(F)F)ncn2)=C(O)C12CCC2 [Example 363] | 11
CN(C)C(=O)N1CCN(CCOc2ccc(CN3C(=O)C(C(=O)Nc4ccc(C(F)(F)F)cc4-c4cc(C(F)(F)F)ncn4)=C(O)C4(CCC4)N3C)c(F)c2F)CC1 [Example 364] | 36
CN(CCOc1ccc(CN2C(=O)C(C(=O)Nc3ccc(C(F)(F)F)cc3-c3cc(C(F)(F)F)ncn3)=C(O)C3(CCCC3)N2C)c(F)c1F)C1CCOCC1 [Example 365] | 34
CN(CCOc1ccc(CN2C(=O)C(C(=O)Nc3ccc(C(F)(F)F)cc3-c3cc(C(F)(F)F)ncn3)=C(O)C3(CCCC3)N2C)c(F)c1F)C1CCOC1 (stereo not shown) [Example 366] | 38
CN1N(Cc2ccc(OCCN3C4CCC3COC4)c(F)c2F)C(=O)C(C(=O)Nc2ccc(C(F)(F)F)cc2-c2cc(C(F)(F)F)ncn2)=C(O)C12CCCC2 [Example 367] | 43
COC(=O)CN(C)CCOc1ccc(CN2C(=O)C(C(=O)Nc3ccc(C(F)(F)F)cc3-c3cc(C(F)(F)F)ncn3)=C(O)C3(CCCC3)N2C)c(F)c1F [Example 368] | 26
CN1N(Cc2ccc(OCCN3CC(F)(F)C3)c(F)c2F)C(=O)C(C(=O)Nc2ccc(C(F)(F)F)cc2-c2cc(C(F)(F)F)ncn2)=C(O)C12CCCC2 [Example 369] | 43
C[C@@H]1COC[C@H](C)N1CCOc1ccc(CN2C(=O)C(C(=O)Nc3ccc(C(F)(F)F)cc3-c3cc(C(F)(F)F)ncn3)=C(O)C3(CCCC3)N2C)c(F)c1F [Example 370] | 41
CN1N(Cc2ccc(OCCN3CCOCC3(C)C)c(F)c2F)C(=O)C(C(=O)Nc2ccc(C(F)(F)F)cc2-c2cc(C(F)(F)F)ncn2)=C(O)C12CCCC2 [Example 371] | 38
COCC(C)(C)N(C)CCOc1ccc(CN2C(=O)C(C(=O)Nc3ccc(C(F)(F)F)cc3-c3cc(C(F)(F)F)ncn3)=C(O)C3(CCCC3)N2C)c(F)c1F [Example 372] | 38
CN(CCO)CCOc1ccc(CN2C(=O)C(C(=O)Nc3ccc(C(F)(F)F)cc3-c3cc(C(F)(F)F)ncn3)=C(O)C3(CCCC3)N2C)c(F)c1F [Example 373] | 27
CN1N(Cc2ccc(OCCN3CCC(N4CCOCC4)CC3)c(F)c2F)C(=O)C(C(=O)Nc2ccc(C(F)(F)F)cc2-c2cc(C(F)(F)F)ncn2)=C(O)C12CCCC2 [Example 374] | 42
COC[C@@H]1CCCN1CCOc1ccc(CN2C(=O)C(C(=O)Nc3ccc(C(F)(F)F)cc3-c3cc(C(F)(F)F)ncn3)=C(O)C3(CCCC3)N2C)c(F)c1F [Example 375] | 31

Reference: EP3928779A1 (Chugai Seiyaku Kabushiki Kaisha, priority 2014, dated 2016)
